From paper PMC10176470, “Engaging a Non-catalytic Cysteine Residue Drives Potent and Selective Inhibition of Caspase-6” (Journal of the American Chemical Society, 2023) come the findings set out here.

Experiment in all cases: SILAC proteomics / in-gel fluorescence, competition of probe 13-t labeling by 3a
Experiment [1] has as its target proteins of HEK293T cells transiently overexpressing caspase-6 (Homo sapiens, UniProt P13667). The following applies: Comp; protein PDIA4 P13667.
Method: (§1) Cells were lysed, and heavy and light SILAC lysates were combined in a 1:1 ratio and subjected to CuAAC reaction with azido-biotin to biotinylate probe-labeled proteins for subsequent capture on streptavidin-coated beads. Bead-bound proteins were split for analysis by in-gel fluorescence and tryptic digestion on-bead for LC–MS/MS analysis.
(§2) SILAC labeling and alkyne probe treatment: HEK293T cells were seeded into 8x 15 cm plates at
(§3) a density of 500,000 cells/plate. 4 of these plates were grown in light SILAC DMEM and 4 were
(§4) grown in heavy SILAC DMEM all containing 10% FBS and 4.5g/L glucose. The next day, all 8
(§5) plates were transfected with a pCMV6-Entry plasmid coding for caspase-6-myc-DDK lacking the
(§6) prodomain. After 24 hours, media was replaced with fresh SILAC growth media containing 4.5 g/L
(§7) glucose and 3% FBS. 24 hours later the plates were treated with probe and inhibitor for 1 hours as
(§8) follows: 2 of the light plates were treated with vehicle, 2 light plates and 2 heavy plates treated with
(§9) for 60 minutes. After treatment, media was removed, and cells were washed with 15 mL PBS for 5
(§10) minutes. Cells were then harvested by scraping in cold PBS and lysed in the presence of Roche
(§11) complete protease inhibitors. Lysates were clarified by centrifugation at 10,000xg for 10 minutes and
(§12) the protein in the supernatant was quantified by BCA assay.
(§13) Proteomics assay: 1 mg of each lysate was diluted to 2mg/ml in PBS with Roche complete protease
(§14) inhibitors. To this was added 0.1 mM biotin-azide, 1 mM tris(2-carboxyethyl)phosphine (TCEP), 0.1
(§15) mM Tris((1-benzyl-4-triazolyl)methyl)amine (TBTA) ligand, and 1 mM CuSO4 in a final volume of
(§16) 0.5 mL. The reaction was incubated at room temperature for 1 hour and was vortexed every 15
(§17) minutes. After 1 hour, proteins are precipitated and are pelleted by centrifuging at 16,000xg for 4
(§18) min at 4 °C. The supernatants were discarded, and the pellets were solubilized with 0.5 mL cold
(§19) The cold methanol wash was then repeated, and the washed
(§20) pellets were resuspended in 1 mL of 1.2% SDS and sonicated until clear. The samples were heat
(§21) denatured at 80-90 °C for 5 minutes and any insoluble particles were removed by centrifugation at
(§22) 6,500xg for 5 minutes. The 1 mL supernatant was transferred to a 15 mL conical tubes containing 5
(§23) mL of PBS and 150 µL of washed neutravidin beads were added. The samples were incubated for 2
(§24) hours at 4 °C while rotating, at which point the samples were warmed to resolubilize any precipitated
(§25) SDS. The beads were pelleted by centrifugation at 1400xg for 3 min and washed for 10 minutes with
(§26) the following solutions: 2x 1% NP-40, 2x PBS + 1 M NaCl, and 2x 50 mM ammonium bicarbonate
(§27) (ABC) + 2 M urea. The beads were then transferred to a 1.5 mL microcentrifuge tube using 2x250
(§28) µL 100 mM Tris pH 8.0 + 4 M Guanidium hydrochloride (final volume 500 µL).
In experiment [2] the target is proteins of HEK293T cells transiently overexpressing caspase-6 (Homo sapiens, UniProt P46777). The following applies: Comp; protein RPL5 P46777.
Method: as §1, §2, §3, §4, §5, §6, §7, §8, §9, §10, §11, §12, §13, §14, §15, §16, §17, §18, §19, §20, §21, §22, §23, §24, §25, §26, §27, §28
Experiment [3] deals with T1, proteins of HEK293T cells transiently overexpressing caspase-6 (Homo sapiens, UniProt Q99832).
T1 sequence (Q99832 1-543): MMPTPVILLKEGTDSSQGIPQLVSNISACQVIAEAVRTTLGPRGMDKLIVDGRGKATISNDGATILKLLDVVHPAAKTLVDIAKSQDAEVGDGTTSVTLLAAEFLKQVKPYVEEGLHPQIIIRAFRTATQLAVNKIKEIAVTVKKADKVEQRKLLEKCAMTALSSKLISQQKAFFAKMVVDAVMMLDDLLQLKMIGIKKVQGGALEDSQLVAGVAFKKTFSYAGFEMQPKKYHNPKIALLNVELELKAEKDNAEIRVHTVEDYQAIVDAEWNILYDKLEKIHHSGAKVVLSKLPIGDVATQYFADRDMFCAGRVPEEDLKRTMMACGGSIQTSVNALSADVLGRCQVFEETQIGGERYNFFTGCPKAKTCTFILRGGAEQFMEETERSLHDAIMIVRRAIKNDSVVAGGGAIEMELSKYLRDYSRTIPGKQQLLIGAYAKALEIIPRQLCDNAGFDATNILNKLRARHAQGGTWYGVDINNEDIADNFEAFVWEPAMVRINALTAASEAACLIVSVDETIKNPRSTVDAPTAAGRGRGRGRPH
The following applies: Comp; protein CCT7 Q99832.
Method: as §1, §2, §3, §4, §5, §6, §7, §8, §9, §10, §11, §12, §13, §14, §15, §16, §17, §18, §19, §20, §21, §22, §23, §24, §25, §26, §27, §28

Experiment [4] concerns the target proteins of HEK293T cells transiently overexpressing caspase-6 (Homo sapiens, UniProt O14980). The following applies: Comp; protein XPO1 O14980.
Method: as §1, §2, §3, §4, §5, §6, §7, §8, §9, §10, §11, §12, §13, §14, §15, §16, §17, §18, §19, §20, §21, §22, §23, §24, §25, §26, §27, §28
For experiment [5], the target named is proteins of HEK293T cells transiently overexpressing caspase-6 (Homo sapiens, UniProt P31939). The following applies: Comp; protein ATIC P31939.
Method: as §1, §2, §3, §4, §5, §6, §7, §8, §9, §10, §11, §12, §13, §14, §15, §16, §17, §18, §19, §20, §21, §22, §23, §24, §25, §26, §27, §28
Experiment [6] deals with proteins of HEK293T cells transiently overexpressing caspase-6 (Homo sapiens, UniProt P63104). The settings on record: Comp; protein YWHAZ P63104.
Chain of proteins of HEK293T cells transiently overexpressing caspase-6 (Homo sapiens, UniProt P63104) (P63104 whole entry): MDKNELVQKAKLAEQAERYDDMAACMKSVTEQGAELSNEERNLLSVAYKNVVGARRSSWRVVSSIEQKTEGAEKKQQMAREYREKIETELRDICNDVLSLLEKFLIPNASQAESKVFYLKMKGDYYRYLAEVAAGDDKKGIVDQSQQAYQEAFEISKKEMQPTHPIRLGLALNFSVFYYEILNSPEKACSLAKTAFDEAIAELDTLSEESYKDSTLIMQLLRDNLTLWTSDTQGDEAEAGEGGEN
Method: as §1, §2, §3, §4, §5, §6, §7, §8, §9, §10, §11, §12, §13, §14, §15, §16, §17, §18, §19, §20, §21, §22, §23, §24, §25, §26, §27, §28
Experiment [7] has as its target T2, proteins of HEK293T cells transiently overexpressing caspase-6 (Homo sapiens, UniProt O60506).
T2 sequence (O60506 1-623): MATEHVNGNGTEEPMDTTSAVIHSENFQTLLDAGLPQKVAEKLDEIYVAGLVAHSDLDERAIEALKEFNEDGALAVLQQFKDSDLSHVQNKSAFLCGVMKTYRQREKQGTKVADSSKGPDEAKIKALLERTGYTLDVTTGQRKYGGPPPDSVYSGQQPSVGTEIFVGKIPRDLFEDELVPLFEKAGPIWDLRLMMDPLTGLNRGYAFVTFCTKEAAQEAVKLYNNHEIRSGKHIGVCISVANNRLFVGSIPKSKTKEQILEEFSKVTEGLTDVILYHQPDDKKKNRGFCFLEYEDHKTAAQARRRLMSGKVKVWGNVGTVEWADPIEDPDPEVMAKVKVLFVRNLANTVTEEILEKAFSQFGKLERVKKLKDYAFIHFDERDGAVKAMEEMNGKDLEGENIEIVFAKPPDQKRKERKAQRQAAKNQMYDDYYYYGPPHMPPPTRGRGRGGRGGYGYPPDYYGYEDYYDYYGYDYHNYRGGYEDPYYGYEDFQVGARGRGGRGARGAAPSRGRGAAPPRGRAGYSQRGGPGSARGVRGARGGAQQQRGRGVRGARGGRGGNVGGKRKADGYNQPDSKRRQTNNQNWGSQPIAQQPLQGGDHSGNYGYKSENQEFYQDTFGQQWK
Method: as §1, §2, §3, §4, §5, §6, §7, §8, §9, §10, §11, §12, §13, §14, §15, §16, §17, §18, §19, §20, §21, §22, §23, §24, §25, §26, §27, §28

Experiment [8] has as its target proteins of HEK293T cells transiently overexpressing caspase-6 (Homo sapiens, UniProt Q14566). The following applies: Comp; protein MCM6 Q14566.
Method: as §1, §2, §3, §4, §5, §6, §7, §8, §9, §10, §11, §12, §13, §14, §15, §16, §17, §18, §19, §20, §21, §22, §23, §24, §25, §26, §27, §28
The target of experiment [9] is proteins of HEK293T cells transiently overexpressing caspase-6 (Homo sapiens, UniProt Q15029). The settings on record: Comp; protein EFTUD2 Q15029.
Chain of proteins of HEK293T cells transiently overexpressing caspase-6 (Homo sapiens, UniProt Q15029) (Q15029 whole entry): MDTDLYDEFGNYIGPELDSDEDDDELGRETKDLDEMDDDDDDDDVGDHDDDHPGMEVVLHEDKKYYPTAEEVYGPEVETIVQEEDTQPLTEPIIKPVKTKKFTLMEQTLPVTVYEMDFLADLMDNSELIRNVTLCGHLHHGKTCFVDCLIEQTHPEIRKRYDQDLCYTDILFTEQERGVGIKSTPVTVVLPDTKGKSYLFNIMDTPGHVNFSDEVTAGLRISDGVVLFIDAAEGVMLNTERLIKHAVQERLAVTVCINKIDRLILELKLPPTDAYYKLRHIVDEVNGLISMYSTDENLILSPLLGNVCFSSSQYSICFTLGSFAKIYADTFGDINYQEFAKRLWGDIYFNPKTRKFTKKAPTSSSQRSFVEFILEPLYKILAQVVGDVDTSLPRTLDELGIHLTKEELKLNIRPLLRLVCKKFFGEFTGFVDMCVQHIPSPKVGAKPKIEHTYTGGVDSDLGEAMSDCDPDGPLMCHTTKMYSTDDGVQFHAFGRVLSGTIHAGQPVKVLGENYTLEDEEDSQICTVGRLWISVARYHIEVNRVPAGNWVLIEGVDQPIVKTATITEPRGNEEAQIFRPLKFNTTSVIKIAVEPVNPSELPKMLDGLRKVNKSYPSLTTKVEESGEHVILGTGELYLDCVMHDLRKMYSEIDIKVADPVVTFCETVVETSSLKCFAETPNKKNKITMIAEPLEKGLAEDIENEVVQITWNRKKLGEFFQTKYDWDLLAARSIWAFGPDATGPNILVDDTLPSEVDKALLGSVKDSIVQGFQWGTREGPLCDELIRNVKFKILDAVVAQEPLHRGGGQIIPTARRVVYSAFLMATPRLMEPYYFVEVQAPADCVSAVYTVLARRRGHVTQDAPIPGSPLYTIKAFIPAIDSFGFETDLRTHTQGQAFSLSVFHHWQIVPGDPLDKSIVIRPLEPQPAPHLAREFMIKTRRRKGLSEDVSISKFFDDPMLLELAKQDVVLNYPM
Method: as §1, §2, §3, §4, §5, §6, §7, §8, §9, §10, §11, §12, §13, §14, §15, §16, §17, §18, §19, §20, §21, §22, §23, §24, §25, §26, §27, §28
In experiment [10] the target is proteins of HEK293T cells transiently overexpressing caspase-6 (Homo sapiens, UniProt P09874). The following applies: Comp; protein PARP1 P09874.
Chain of proteins of HEK293T cells transiently overexpressing caspase-6 (Homo sapiens, UniProt P09874) (P09874 whole entry): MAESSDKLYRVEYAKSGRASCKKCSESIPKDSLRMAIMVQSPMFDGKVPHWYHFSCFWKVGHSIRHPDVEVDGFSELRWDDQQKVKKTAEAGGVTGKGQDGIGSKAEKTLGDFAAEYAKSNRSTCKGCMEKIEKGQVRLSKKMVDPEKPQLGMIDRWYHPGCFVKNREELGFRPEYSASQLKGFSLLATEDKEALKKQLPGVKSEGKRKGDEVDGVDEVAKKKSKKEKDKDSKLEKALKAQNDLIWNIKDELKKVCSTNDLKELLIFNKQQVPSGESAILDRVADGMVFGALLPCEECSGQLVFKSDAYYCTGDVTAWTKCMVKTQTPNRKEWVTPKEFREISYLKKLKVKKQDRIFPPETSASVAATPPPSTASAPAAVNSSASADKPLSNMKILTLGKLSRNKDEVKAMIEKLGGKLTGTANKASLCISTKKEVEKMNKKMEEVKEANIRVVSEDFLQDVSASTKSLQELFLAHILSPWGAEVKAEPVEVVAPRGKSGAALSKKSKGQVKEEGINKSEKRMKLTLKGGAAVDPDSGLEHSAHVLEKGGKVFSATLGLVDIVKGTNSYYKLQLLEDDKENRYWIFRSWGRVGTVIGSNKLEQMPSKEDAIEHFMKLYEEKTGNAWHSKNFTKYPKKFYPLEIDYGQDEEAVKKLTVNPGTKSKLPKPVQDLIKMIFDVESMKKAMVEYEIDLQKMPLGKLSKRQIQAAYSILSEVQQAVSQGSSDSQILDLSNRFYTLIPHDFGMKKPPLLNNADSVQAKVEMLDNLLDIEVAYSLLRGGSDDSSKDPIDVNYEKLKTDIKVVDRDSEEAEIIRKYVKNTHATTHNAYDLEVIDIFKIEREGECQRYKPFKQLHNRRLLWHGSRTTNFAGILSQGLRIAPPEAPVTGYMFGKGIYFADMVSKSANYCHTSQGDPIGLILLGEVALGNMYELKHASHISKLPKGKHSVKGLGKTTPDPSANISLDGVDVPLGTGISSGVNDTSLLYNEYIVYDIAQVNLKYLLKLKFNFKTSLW
Method: as §1, §2, §3, §4, §5, §6, §7, §8, §9, §10, §11, §12, §13, §14, §15, §16, §17, §18, §19, §20, §21, §22, §23, §24, §25, §26, §27, §28
In experiment [11] the target is proteins of HEK293T cells transiently overexpressing caspase-6 (Homo sapiens, UniProt P62917). The following applies: Comp; protein RPL8 P62917.
Method: as §1, §2, §3, §4, §5, §6, §7, §8, §9, §10, §11, §12, §13, §14, §15, §16, §17, §18, §19, §20, §21, §22, §23, §24, §25, §26, §27, §28
Experiment [12] has as its target proteins of HEK293T cells transiently overexpressing caspase-6 (Homo sapiens, UniProt P13797). The settings on record: Comp; protein PLS3 P13797.
Method: as §1, §2, §3, §4, §5, §6, §7, §8, §9, §10, §11, §12, §13, §14, §15, §16, §17, §18, §19, §20, §21, §22, §23, §24, §25, §26, §27, §28
Where [13] appears, read: protein SYNCRIP (O60506), Exp Comp, analysis C6, p 0.0625, 5 peptides.

Chain of proteins of HEK293T cells transiently overexpressing caspase-6 (Homo sapiens, UniProt O14980) (O14980 whole entry): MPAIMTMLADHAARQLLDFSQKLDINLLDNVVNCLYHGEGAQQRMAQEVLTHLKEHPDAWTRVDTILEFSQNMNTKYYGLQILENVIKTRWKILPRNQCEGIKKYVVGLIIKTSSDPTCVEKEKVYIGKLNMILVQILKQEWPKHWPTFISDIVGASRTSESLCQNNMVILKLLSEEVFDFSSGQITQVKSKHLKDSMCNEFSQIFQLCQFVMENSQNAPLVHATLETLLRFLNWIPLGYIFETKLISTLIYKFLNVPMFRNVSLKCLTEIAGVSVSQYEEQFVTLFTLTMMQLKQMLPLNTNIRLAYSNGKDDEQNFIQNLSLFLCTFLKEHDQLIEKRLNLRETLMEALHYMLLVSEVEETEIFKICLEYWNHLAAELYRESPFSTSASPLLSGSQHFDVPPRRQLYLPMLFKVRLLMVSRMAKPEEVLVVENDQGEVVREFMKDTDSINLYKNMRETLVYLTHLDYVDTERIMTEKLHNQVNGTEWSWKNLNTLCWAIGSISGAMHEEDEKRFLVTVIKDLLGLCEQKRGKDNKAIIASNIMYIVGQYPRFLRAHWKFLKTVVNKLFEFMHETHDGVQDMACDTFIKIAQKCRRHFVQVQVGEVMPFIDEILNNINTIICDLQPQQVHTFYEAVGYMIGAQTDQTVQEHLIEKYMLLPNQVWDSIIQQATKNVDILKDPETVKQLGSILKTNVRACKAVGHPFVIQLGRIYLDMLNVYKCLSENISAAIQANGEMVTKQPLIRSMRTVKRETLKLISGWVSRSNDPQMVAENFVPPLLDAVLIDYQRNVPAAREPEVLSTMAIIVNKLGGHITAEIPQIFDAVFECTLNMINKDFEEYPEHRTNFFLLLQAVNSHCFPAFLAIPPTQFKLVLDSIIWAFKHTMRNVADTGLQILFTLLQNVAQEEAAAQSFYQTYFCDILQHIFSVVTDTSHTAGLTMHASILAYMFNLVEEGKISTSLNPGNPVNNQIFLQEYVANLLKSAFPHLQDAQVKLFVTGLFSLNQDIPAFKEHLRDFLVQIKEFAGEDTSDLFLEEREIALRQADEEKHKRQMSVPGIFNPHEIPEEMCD
Chain of proteins of HEK293T cells transiently overexpressing caspase-6 (Homo sapiens, UniProt Q14566) (Q14566 whole entry): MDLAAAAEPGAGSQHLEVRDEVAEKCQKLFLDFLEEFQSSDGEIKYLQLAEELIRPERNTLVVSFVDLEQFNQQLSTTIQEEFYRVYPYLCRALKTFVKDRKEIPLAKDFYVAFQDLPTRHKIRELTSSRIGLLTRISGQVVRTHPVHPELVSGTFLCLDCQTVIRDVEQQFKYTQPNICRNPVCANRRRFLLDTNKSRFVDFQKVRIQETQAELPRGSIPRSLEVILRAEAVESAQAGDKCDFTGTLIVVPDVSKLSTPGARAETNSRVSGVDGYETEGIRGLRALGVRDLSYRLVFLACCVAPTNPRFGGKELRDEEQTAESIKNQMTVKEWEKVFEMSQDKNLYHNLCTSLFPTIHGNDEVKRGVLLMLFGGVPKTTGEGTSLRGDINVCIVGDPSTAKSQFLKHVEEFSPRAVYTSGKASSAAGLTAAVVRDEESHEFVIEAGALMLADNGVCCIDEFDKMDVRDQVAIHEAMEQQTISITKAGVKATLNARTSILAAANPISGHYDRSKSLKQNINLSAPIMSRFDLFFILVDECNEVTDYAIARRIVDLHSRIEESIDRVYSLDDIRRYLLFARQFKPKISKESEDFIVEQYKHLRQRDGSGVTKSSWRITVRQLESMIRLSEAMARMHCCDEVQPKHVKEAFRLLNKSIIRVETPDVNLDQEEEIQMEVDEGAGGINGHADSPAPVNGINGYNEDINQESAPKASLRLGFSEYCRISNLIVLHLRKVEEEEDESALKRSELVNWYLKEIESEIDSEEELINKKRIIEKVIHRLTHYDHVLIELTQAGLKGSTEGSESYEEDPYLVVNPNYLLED
Chain of proteins of HEK293T cells transiently overexpressing caspase-6 (Homo sapiens, UniProt P13667) (P13667 21-645): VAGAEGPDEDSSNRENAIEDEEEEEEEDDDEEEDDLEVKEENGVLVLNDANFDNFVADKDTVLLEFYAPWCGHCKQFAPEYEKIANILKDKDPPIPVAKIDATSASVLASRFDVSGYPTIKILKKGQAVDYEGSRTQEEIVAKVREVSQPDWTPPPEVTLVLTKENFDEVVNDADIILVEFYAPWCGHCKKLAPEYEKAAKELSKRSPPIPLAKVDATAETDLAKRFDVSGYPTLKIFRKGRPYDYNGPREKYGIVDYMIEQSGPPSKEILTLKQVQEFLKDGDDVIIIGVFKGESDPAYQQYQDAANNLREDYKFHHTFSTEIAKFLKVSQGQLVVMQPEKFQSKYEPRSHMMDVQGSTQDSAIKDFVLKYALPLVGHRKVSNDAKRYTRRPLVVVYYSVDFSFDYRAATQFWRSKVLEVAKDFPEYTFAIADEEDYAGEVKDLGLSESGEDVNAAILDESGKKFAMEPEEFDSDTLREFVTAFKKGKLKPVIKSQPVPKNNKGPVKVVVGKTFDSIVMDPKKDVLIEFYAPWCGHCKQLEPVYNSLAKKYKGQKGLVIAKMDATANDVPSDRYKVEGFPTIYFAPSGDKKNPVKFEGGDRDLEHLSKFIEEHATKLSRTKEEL

In the case of `C=CS(=O)(=O)N1C[C@H](C(=O)Nc2ccc(OC(F)(F)F)cc2)C[C@@H](c2ccccc2)C1` [3a], the enrich.exp.med in experiment [1] worked out at 0.6419; in [2] it was 0.7402; in experiment [3], 0.6137; in experiment [4], 0.6797; in experiment [5], 0.7149; in [6], 0.6236. The enrich.exp.med worked out at 1.48 in experiment [7] (Comp, protein SYNCRIP O60506); 0.8484 in [8]; 0.5983 in [9]; 0.6484 in experiment [10]; 0.8074 in experiment [11]; 0.6361 in [12]. In addition, the enrich.exp.med.lin in [7] (setting [13]) came out at 2.7903. In experiment [7] (setting [13]), this compound yielded an enrich.exp.med.log2 of 1.48.
